Among the data in PubChem BioAssay AID248 (DTP/NCI, 2004) are T/C values, retold here.

Several values for one entry are separate records, joined by “and”; a condition that tells them apart may be missing. Identical values can stand only once. Toxic doses and inconclusive results are not listed.

This experiment has as its system L1210 leukemia ip in BDF1 mice, survival T/C. Description: NCI In Vivo Anticancer Drug Screen. Data for tumor model L1210 Leukemia (intraperitoneal) in B6D2F1 (BDF1) mice. The following applies: endpoint: mean survival time, higher = longer survival. The essentials:
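Antitumor effect is assessed in tumor-bearing animals. Survival in the compound arm is compared with a vehicle-dosed control arm and expressed as their quotient.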

[1] abbreviates: dose: 25.0 mg/kg/injection, schedule: Q04DX003 (ip), vehicle: Klucel (hydroxypropylcellulose) (HPC).
[2] abbreviates: dose: 50.0 mg/kg/injection, schedule: Q04DX003 (ip), vehicle: Klucel (hydroxypropylcellulose) (HPC).
Setting [3] is: dose: 100.0 mg/kg/injection, schedule: Q01DX001 (ip), vehicle: Klucel (hydroxypropylcellulose) (HPC).
Where [4] appears, read: dose: 100.0 mg/kg/injection, schedule: Q04DX003 (ip), vehicle: Klucel (hydroxypropylcellulose) (HPC).
Setting [5] is: dose: 200.0 mg/kg/injection, schedule: Q01DX001 (ip), vehicle: Klucel (hydroxypropylcellulose) (HPC).
[6] abbreviates: dose: 200.0 mg/kg/injection, schedule: Q04DX003 (ip), vehicle: Klucel (hydroxypropylcellulose) (HPC).
The mark [7] stands for this setting: dose: 400.0 mg/kg/injection, schedule: Q04DX003 (ip), vehicle: Klucel (hydroxypropylcellulose) (HPC).
The mark [8] stands for this setting: dose: 100.0 mg/kg/injection, schedule: Q04DX003 (ip), vehicle: saline.
The mark [9] stands for this setting: dose: 200.0 mg/kg/injection, schedule: Q04DX003 (ip), vehicle: saline.
The mark [10] stands for this setting: dose: 50.0 mg/kg/injection, schedule: Q01DX001 (ip), vehicle: Klucel (hydroxypropylcellulose) (HPC).
The mark [11] stands for this setting: dose: 100.0 mg/kg/injection, schedule: Q01DX009 (ip), vehicle: Klucel (hydroxypropylcellulose) (HPC).
Setting [12] is: dose: 200.0 mg/kg/injection, schedule: Q01DX009 (ip), vehicle: Klucel (hydroxypropylcellulose) (HPC).
The mark [13] stands for this setting: dose: 400.0 mg/kg/injection, schedule: Q01DX009 (ip), vehicle: Klucel (hydroxypropylcellulose) (HPC).
Where [14] appears, read: dose: 100.0 mg/kg/injection, schedule: Q01DX001 (ip), vehicle: other.
Setting [15] is: dose: 200.0 mg/kg/injection, schedule: Q01DX001 (ip), vehicle: other.
[16] abbreviates: dose: 400.0 mg/kg/injection, schedule: Q01DX001 (ip), vehicle: other.

Regarding `C=CCc1cc(CN(CCO)Cc2cc(CC=C)cc(OC)c2O)c(O)c(OC)c1`, the T/C runs as follows: (dose: 12.5 mg/kg/injection, schedule: Q04DX003 (ip), vehicle: Klucel (hydroxypropylcellulose) (HPC)) 95 % of control; under setting [1], 101 % of control; under setting [2], 95 % of control.

For `O=C(NC/C(Br)=C/Br)C(F)(F)F`, the T/C by setting is: under setting [3], 113 % of control; under setting [4], 90 % of control; under setting [5], 105 % of control; under setting [6], 88 % of control; (dose: 400.0 mg/kg/injection, schedule: Q01DX001 (ip), vehicle: Klucel (hydroxypropylcellulose) (HPC)) 105 % of control; under setting [7], 90 % of control.

With `C[N+](C)(C)CCOc1ccc([N+](=O)[O-])cc1`, the T/C runs as follows: (dose: 50.0 mg/kg/injection, schedule: Q01DX001 (ip), vehicle: saline) 95 % of control; (dose: 100.0 mg/kg/injection, schedule: Q01DX001 (ip), vehicle: saline) 104 % of control; (dose: 200.0 mg/kg/injection, schedule: Q01DX001 (ip), vehicle: saline) 92 % of control.

In the case of `CCOC(=O)N1CCN(CCO)CC1`, the T/C is, setting by setting: under setting [8], 102 % of control; under setting [9], 94 % of control.

For the compound `Cc1ccc2[nH]c3c(c2c1)C[P+](Cc1cccc2ccccc12)(c1ccccc1)CC3` (stereo unspecified), the T/C was 87 % of control (dose: 25.0 mg/kg/injection, schedule: Q01DX001 (ip), vehicle: Klucel (hydroxypropylcellulose) (HPC)); 91 % of control under setting [1]; 92 % of control under setting [10]; 105 % of control under setting [2]; 112 % of control and 86 % of control under setting [3]; 99 % of control under setting [4]. Moreover, the T/C under setting [5] is 95 % of control.

As to `OCC(O)C(O)/C=N/Nc1cc(Cl)ccc1Cl` (stereo unspecified), the T/C (dose: 50.0 mg/kg/injection, schedule: Q01DX001 (ip), vehicle: carboxymethylcellulose (CMC)) is 90 % of control; the T/C (dose: 100.0 mg/kg/injection, schedule: Q01DX001 (ip), vehicle: carboxymethylcellulose (CMC)) was 104 % of control; the T/C (dose: 200.0 mg/kg/injection, schedule: Q01DX001 (ip), vehicle: carboxymethylcellulose (CMC)) was 95 % of control.

In the case of `CCOC(CN=CN(C)C)OCC`, the T/C under setting [8] is 94 % of control; the T/C under setting [9] was 105 % of control; the T/C (dose: 400.0 mg/kg/injection, schedule: Q04DX003 (ip), vehicle: saline) was 97 % of control.

As to `O=C(Nc1ccccc1Cl)Oc1ccc(-c2ccccc2)cc1Br`, the T/C by setting is: under setting [11], 102 % of control; under setting [4], 94 % of control; under setting [12], 96 % of control; under setting [6], 96 % of control; under setting [13], 104 % of control; under setting [7], 102 % of control.

As for `N#[N+]c1ccc(Br)cc1-c1nc(N)c2cc(Br)ccc2n1`, the T/C was 94 % of control under setting [10], 105 % of control under setting [3] and 105 % of control under setting [5].

With `C[C@H]1[C@H](O)[C@H]2[C@@H](CCC3=CC(=O)CC[C@@]32C)[C@@H]2CC[C@H](O)[C@@]12C`, the T/C (dose: 50.0 mg/kg/injection, schedule: Q01DX001 (sc), vehicle: steriod suspending solution) is 102 % of control; the T/C (dose: 100.0 mg/kg/injection, schedule: Q01DX001 (sc), vehicle: steriod suspending solution) is 102 % of control; the T/C (dose: 200.0 mg/kg/injection, schedule: Q01DX001 (sc), vehicle: steriod suspending solution) is 102 % of control; the T/C (dose: 400.0 mg/kg/injection, schedule: Q01DX001 (sc), vehicle: steriod suspending solution) was 96 % of control.

As for `Cc1cn(C2CC(O)C(CF)O2)c(=O)[nH]c1=O` (stereo unspecified), the T/C was 117 % of control (dose: 100.0 mg/kg/injection, schedule: Q01DX005 (ip), vehicle: saline) and 122 % of control (dose: 200.0 mg/kg/injection, schedule: Q01DX005 (ip), vehicle: saline).

For `CCCCCCN(CCCCCC)[N+](=O)[O-]`, the T/C is 96 % of control under setting [14], 100 % of control under setting [15] and 96 % of control under setting [16].

`OC1C=C(Br)C2CCC1CC2` (stereo unspecified): the T/C was 113 % of control (dose: 100.0 mg/kg/injection, schedule: Q01DX009 (ip), vehicle: other); 96 % of control (dose: 100.0 mg/kg/injection, schedule: Q04DX003 (ip), vehicle: other); 100 % of control (dose: 200.0 mg/kg/injection, schedule: Q01DX009 (ip), vehicle: other); 107 % of control (dose: 200.0 mg/kg/injection, schedule: Q04DX003 (ip), vehicle: other); 92 % of control (dose: 400.0 mg/kg/injection, schedule: Q01DX009 (ip), vehicle: other); 100 % of control (dose: 400.0 mg/kg/injection, schedule: Q04DX003 (ip), vehicle: other).

For the compound `NC(CCC(=O)NC(CSC(c1ccccc1)(c1ccccc1)c1ccc(F)cc1)C(=O)NCC(=O)O)C(=O)O` (stereo unspecified), the T/C (dose: 25.0 mg/kg/injection, schedule: Q01DX009 (ip), vehicle: saline) was 124 % of control; the T/C (dose: 50.0 mg/kg/injection, schedule: Q01DX009 (ip), vehicle: other) is 116 % of control; the T/C (dose: 50.0 mg/kg/injection, schedule: Q01DX009 (ip), vehicle: saline) is 118 % of control; the T/C (dose: 200.0 mg/kg/injection, schedule: Q01DX009 (ip), vehicle: saline) was 152 % of control.

In the case of `CCCC(=O)NC1CC(OC2CC(O)(C(C)=O)Cc3c(O)c4c(c(O)c32)C(=O)c2c(OC)cccc2C4=O)OC(C)C1O` (stereo unspecified), the T/C runs as follows: (dose: 0.25 mg/kg/injection, schedule: Q01DX009 (ip), vehicle: saline) 91 % of control; (dose: 0.5 mg/kg/injection, schedule: Q01DX009 (ip), vehicle: saline) 96 % of control; (dose: 1.0 mg/kg/injection, schedule: Q01DX009 (ip), vehicle: saline) 91 % of control; (dose: 2.0 mg/kg/injection, schedule: Q01DX009 (ip), vehicle: saline) 93 % of control; (dose: 4.0 mg/kg/injection, schedule: Q01DX009 (ip), vehicle: saline) 96 % of control.

As for `Cc1cccc(NC(=O)NCCCl)c1`, the T/C under setting [14] was 97 % of control; the T/C under setting [11] is 95 % of control; the T/C (dose: 100.0 mg/kg/injection, schedule: Q04DX002 (ip), vehicle: Klucel (hydroxypropylcellulose) (HPC)) is 102 % of control; the T/C under setting [15] is 105 % of control; the T/C under setting [12] was 92 % of control; the T/C (dose: 200.0 mg/kg/injection, schedule: Q04DX002 (ip), vehicle: Klucel (hydroxypropylcellulose) (HPC)) was 113 % of control. For the same compound, the T/C by setting is: under setting [16], 97 % of control; under setting [13], 92 % of control; (dose: 400.0 mg/kg/injection, schedule: Q04DX002 (ip), vehicle: Klucel (hydroxypropylcellulose) (HPC)) 102 % of control.

For the compound `CC(C)N1CNC(=O)C12CCN(CC1COc3ccccc3O1)CC2` (stereo unspecified), the T/C (dose: 100.0 mg/kg/injection, schedule: Q04DX003 (ip), vehicle: saline with Tween-80) was 104 % of control and the T/C (dose: 200.0 mg/kg/injection, schedule: Q04DX003 (ip), vehicle: saline with Tween-80) is 106 % of control.
